Reference: patent publication US12324813B2, “Method and pharmaceutical composition for rescuing retinal degeneration” (Taipei Veterans General Hospital, priority 2023, dated 2025)
“Also recorded” adds a separate entry of the source.

How the values were obtained:
[1] = test system: ARPE-19 cells; experiment: Immunoblotting analysis of treated ARPE-19 cells; assay type: cell-based
Procedure: Cells were treated with the autophagy inhibitor Bafilomycin A1 (Sigma, Saint Louis, MO, USA) at 75 nM or DUSP6 inhibitor BCI (Sigma, Saint Louis, MO, USA) at 1.25 μM or 2.5 μM for 6 h at 37° C. Proteins were collected after treatment for further study. C57BL/6N mice were sacrificed and their eyes were collected. The excess muscle tissue outside the sclera was removed and then a needle was used to make a hole in the cornea then remove the whole cornea. Next, we eliminated the lens and retina, and finally lysed the remaining tissue RIPA buffer (10× Merck Millipore, Temecula, CA, USA) containing with 1% protease inhibitor. Meanwhile, in vitro ARPE-19 cells were collected and lysed with RIPA buffer containing with 1% protease inhibitor. Subsequently, cell lysates were centrifuged for 10 min at 4° C. and the supernatants were collected. Next, the protein concentrations were measured via the BCA Protein Quantification Kit. An equal weight of total protein was separated by electrophoresis on SDS/PAGE. After the proteins were transferred onto polyvinylidene difluoride (PVDF) membranes (Millipore, Bedford, MA, USA), the membranes were incubated with blocking buffer (1×TBST and 5% skim milk) for 1 h at room temperature. After the blocking step, the membranes were incubated with the following primary antibodies at 4° C. overnight: DUSP6 (Abcam, Cambridge, UK), Phospho-ERK1/2 (Cell Signaling, Danvers, MA, USA), ERK1/2 (Cell Signaling, Danvers, MA, USA), LC3B (Novus, Centennial, CO, USA), SQSTM1/p62 (Abcam, Cambridge, UK), LAMP2 (Abcam, Cambridge, UK), Beclin-1 (Cell Signaling, Danvers, MA, USA), and Bactin (Sigma, Saint Louis, MO, USA). Next, membranes were washed three times with TBST and incubated with HRP-conjugated secondary antibodies including Goat anti-mouse IgG (Invitrogen, Carlsbad, CA, USA) and Goat anti-rabbit IgG (Invitrogen, Carlsbad, CA, USA) for 1 h at RT. The antigen-antibody complexes were detected by an enhanced chemiluminescence (ECL) substrate kit (Bioman, Millipore, Bedford, MA, USA). Bands were analyzed and quantified by the ImageJ (NIH, Bethesda, MD, USA) analysis software.

[2] = test system: ARPE-19 cells; experiment: Immunocytochemistry / immunofluorescence staining of ARPE-19 cells; assay type: cell-based
Procedure: In vitro, the cells were seeded in 24-well plates at a density of 2×10^5 per well and incubated at 37° C. with 5% CO2 for 24 h. […] After rinsing three times with PBS, the cells were permeabilized and blocked with a blocking solution (0.3% BSA and 0.1% Triton X-100 in PBS) at room temperature for 1 h. After blocking, cells were incubated with primary antibodies overnight at 4° C. The primary antibodies include DUSP6 (Abcam, Cambridge, UK), Phospho-ERK1/2 (Cell Signaling, Danvers, MA, USA), LC3B (Novus, Centennial, CO, USA), and SQSTM1/p62 (Abcam, Cambridge, UK). After incubation, cells were washed three times with PBST (0.1% Triton X-100 in PBS). Secondary antibodies (1:700) were applied for 3 h at room temperature. The secondary antibodies include IgG Alexa 488 goat anti-rabbit IgG and Alexa 594 goat anti-mouse IgG. Nuclei were stained with DAPI (1:1000) for 10 min at 4° C. and slides were observed by a light microscope (Olympus America, Melville, NY, USA). In vivo, the sample slices were pretreated with bleaching solution (1% NaH2PO4 and 2.5% H2O2) overnight at room temperature. Next, the primary antibodies, including DUSP6, Phospho-ERK1/2, LC3B, SQSTM1/p62, and RPE65, were incubated with the sample slices overnight at 4° C. After incubation, the samples were washed three times with PBST. Tests with secondary antibodies (1:700) were conducted for 1 h at room temperature. The secondary antibodies included IgG Alexa 488 goat anti-rabbit IgG and Alexa 594 goat anti-mouse IgG. After treating them with mounting solution, the slides were observed by a fluorescence microscope (Olympus America, Melville, NY, USA).

[3] = test system: ARPE-19 cells; experiment: qRT-PCR of p62 mRNA in ARPE-19 cells; assay type: cell-based; conditions: ARPE-19 co-treated with BCI and NaIO3 for 6 hours
Procedure: The cDNA was diluted to 200 ng/μL with sterile water and mixed with SYBR PCR Master Mix and primers. Amplification reaction was performed in a thermal cycler according to the manufacturer's instructions. mRNA abundance was quantified using the threshold cycle method. The mRNA expression of GAPDH was used as an internal control for normalization.

[4] = test system: ARPE-19 cells; experiment: Live imaging of GFP-LC3-RFP-LC3AG reporter in ARPE-19 cells; assay type: cell-based; conditions: ARPE-19, BCI under NaIO3-induced oxidative stress
Text: Furthermore, to estimate the autophagic flux in BCI-treated ARPE-19 cells, we introduced the GFP-LC3-RFP-LC3AG gene into ARPE-19 cells and monitored live images taken after BCI treatment.

[5] = test system: C57BL/6N mice; experiment: DUSP6 inhibitor (BCI) treatment in NaIO3-treated mice; assay type: in vivo
Text: Retina samples were fixed with 4% paraformaldehyde (Sigma, Saint Louis, MO, USA) overnight, followed by 1×PBS. The methodology used for fixation, dehydration, clearing, infiltration, and embedding was developed according to that of Bio-Check Laboratories. […] The morphology of the retina was observed using a light microscope (Olympus America, Melville, NY, USA). Next, the thicknesses of the retina, defined as the distance between the inner limiting membrane, Bruch's membrane, and the outer nuclear layer (ONL), were measured by Image J (NIH, Bethesda, Maryland, USA). In vitro, the cells were seeded in 24-well plates at a density of 2×10^5 per well and incubated at 37° C. with 5% CO2 for 24 h. […] After rinsing three times with PBS, the cells were permeabilized and blocked with a blocking solution (0.3% BSA and 0.1% Triton X-100 in PBS) at room temperature for 1 h. After blocking, cells were incubated with primary antibodies overnight at 4° C. The primary antibodies include DUSP6 (Abcam, Cambridge, UK), Phospho-ERK1/2 (Cell Signaling, Danvers, MA, USA), LC3B (Novus, Centennial, CO, USA), and SQSTM1/p62 (Abcam, Cambridge, UK). After incubation, cells were washed three times with PBST (0.1% Triton X-100 in PBS). Secondary antibodies (1:700) were applied for 3 h at room temperature. The secondary antibodies include IgG Alexa 488 goat anti-rabbit IgG and Alexa 594 goat anti-mouse IgG. Nuclei were stained with DAPI (1:1000) for 10 min at 4° C. and slides were observed by a light microscope (Olympus America, Melville, NY, USA). In vivo, the sample slices were pretreated with bleaching solution (1% NaH2PO4 and 2.5% H2O2) overnight at room temperature. Next, the primary antibodies, including DUSP6, Phospho-ERK1/2, LC3B, SQSTM1/p62, and RPE65, were incubated with the sample slices overnight at 4° C. After incubation, the samples were washed three times with PBST. Tests with secondary antibodies (1:700) were conducted for 1 h at room temperature. The secondary antibodies included IgG Alexa 488 goat anti-rabbit IgG and Alexa 594 goat anti-mouse IgG. After treating them with mounting solution, the slides were observed by a fluorescence microscope (Olympus America, Melville, NY, USA). […] The structure of the retina was analyzed by real-time images and H & E staining. Proteins were collected from retina for further study.

[6] = NaIO3 30 mg/kg i.p. then BCI 0.5 mg/kg intravitreal
[7] = NaIO3-treated ARPE-19 cells with Baf-A1 75 nM

SMILES	p-ERK/ERK ratio (ERK activity) ([1]; NaIO3-treated ARPE-19, BCI 1.25 and 2.5 μM, 6 h)	autophagic markers (immunoblotting) ([1]; NaIO3-treated ARPE-19, BCI 1.25 and 2.5 μM, hydrochloride)	autophagosomes (fluorescence images) ([2]; ARPE-19, BCI 1.25 μM, oxidative conditions)	speckles of p-ERK ([2]; ARPE-19, BCI with or without NaIO3)	perinuclear p62 punctate ([2]; ARPE-19 co-treated with NaIO3 and BCI)	cell-cell junction (tight junction marker ZO-1) ([2]; RPE cells, NaIO3 vs control, BCI co-treatment)	p62 mRNA level [3]	GFP / RFP LC3 signal (late-stage autophagy) [4]	ONL disorganization (H & E) ([5]; BCI 0.5 mg/kg intravitreal in presence of NaIO3-induced oxidative stress)	ONL thickness ([5]; BCI group vs NaIO3 group)	melanin deposition on the retina ([5]; BCI group vs mice treated with NaIO3 only)	co-localization of LC3B and p62 between the ONL and RPE layers [5, 6]	phosphorylated ERK speckles around the ONL and RPE layers [5, 6]	accumulation of p62 in mouse retinas ([5]; mouse retinas treated with BCI)	LC3B-II expression [1, 7]	p62 expression levels [1, 7]
Cl.O=C1/C(=C/c2ccccc2)C(NC2CCCCC2)c2ccccc21 (mixture of isomers) [BCI, (E/Z)-BCI hydrochloride]	significantly increased in NaIO3-treated cells after BCI treatment in a dose-dependent manner	upregulation of autophagic markers upon BCI treatment in a dose-dependent manner; also recorded: also upregulated	aggregation of autophagosomes	increased after BCI treatment, despite the presence or absence of NaIO3	significantly upregulated	rescue the cell-cell junction	upregulated	GFP-positive signal being shifted to an RFP-positive signal	alleviated	restored the ONL thickness	significantly reduced	excessive co-localization	dramatically enhanced	significantly decreased		
CO/C1=C\C(C)=C\[C@@H](C)[C@@H](O)[C@@H](C)C/C(C)=C/C=C/[C@H](OC)[C@@H]([C@@H](C)[C@@H](O)[C@H](C)[C@@]2(O)C[C@@H](O)[C@H](C)[C@@H](C(C)C)O2)OC1=O [Baf-A1, Bafilomycin A1]															increase in LC3B-II expression in a dose-dependent manner	remained unchanged
